The target of data set [1] is Multidrug resistance associated protein (Homo sapiens) (UniProt Q96QA9). Put plainly: (§1) TP_TRANSPORTER: Northern blot from HepG2 cells. It is filed as functional, cell-based.
The target of data set [2] is Multidrug resistance-associated protein 1 (Homo sapiens, UniProt P33527). The description is as §1. In kind it is functional, cell-based.
Chain of Multidrug resistance-associated protein 1 (P33527 whole entry): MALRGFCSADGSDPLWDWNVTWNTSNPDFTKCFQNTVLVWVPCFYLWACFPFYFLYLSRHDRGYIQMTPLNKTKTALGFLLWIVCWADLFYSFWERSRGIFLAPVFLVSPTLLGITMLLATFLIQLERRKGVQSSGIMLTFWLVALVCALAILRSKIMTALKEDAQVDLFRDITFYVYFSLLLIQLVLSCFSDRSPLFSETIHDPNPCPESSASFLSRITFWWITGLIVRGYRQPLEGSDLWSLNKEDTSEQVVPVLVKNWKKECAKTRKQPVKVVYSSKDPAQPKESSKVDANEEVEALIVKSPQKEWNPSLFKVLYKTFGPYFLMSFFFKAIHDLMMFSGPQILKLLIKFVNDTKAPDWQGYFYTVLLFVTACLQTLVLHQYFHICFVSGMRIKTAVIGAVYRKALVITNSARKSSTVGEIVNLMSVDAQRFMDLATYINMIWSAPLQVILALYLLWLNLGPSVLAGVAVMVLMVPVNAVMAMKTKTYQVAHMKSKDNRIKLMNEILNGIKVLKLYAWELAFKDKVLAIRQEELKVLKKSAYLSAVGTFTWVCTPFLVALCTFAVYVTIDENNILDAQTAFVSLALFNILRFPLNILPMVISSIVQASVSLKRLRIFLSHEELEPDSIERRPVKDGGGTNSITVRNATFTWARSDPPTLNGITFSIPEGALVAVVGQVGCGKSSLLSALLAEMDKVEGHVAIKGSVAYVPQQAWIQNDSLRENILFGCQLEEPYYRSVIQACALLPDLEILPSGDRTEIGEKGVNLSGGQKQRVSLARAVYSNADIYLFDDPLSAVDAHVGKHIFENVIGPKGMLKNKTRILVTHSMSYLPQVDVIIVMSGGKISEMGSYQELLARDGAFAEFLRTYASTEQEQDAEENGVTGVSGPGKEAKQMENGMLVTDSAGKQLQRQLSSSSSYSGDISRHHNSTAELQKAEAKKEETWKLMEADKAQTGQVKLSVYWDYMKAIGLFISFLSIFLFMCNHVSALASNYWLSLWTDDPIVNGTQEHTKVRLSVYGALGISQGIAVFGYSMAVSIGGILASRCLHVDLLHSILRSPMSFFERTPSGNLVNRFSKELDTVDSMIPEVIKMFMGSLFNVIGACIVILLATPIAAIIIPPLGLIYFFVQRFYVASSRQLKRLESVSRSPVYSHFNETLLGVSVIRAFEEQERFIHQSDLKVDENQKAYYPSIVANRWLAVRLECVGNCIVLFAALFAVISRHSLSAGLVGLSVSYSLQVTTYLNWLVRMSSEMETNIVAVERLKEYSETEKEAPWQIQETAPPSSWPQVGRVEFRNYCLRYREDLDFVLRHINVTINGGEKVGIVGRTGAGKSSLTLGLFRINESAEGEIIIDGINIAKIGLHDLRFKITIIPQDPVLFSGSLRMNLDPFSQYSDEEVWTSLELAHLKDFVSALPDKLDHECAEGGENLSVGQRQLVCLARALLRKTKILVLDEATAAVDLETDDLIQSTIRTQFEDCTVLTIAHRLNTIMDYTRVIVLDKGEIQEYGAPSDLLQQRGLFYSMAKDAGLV

Chain of Multidrug resistance associated protein (Homo sapiens) (Q96QA9 as listed by the source): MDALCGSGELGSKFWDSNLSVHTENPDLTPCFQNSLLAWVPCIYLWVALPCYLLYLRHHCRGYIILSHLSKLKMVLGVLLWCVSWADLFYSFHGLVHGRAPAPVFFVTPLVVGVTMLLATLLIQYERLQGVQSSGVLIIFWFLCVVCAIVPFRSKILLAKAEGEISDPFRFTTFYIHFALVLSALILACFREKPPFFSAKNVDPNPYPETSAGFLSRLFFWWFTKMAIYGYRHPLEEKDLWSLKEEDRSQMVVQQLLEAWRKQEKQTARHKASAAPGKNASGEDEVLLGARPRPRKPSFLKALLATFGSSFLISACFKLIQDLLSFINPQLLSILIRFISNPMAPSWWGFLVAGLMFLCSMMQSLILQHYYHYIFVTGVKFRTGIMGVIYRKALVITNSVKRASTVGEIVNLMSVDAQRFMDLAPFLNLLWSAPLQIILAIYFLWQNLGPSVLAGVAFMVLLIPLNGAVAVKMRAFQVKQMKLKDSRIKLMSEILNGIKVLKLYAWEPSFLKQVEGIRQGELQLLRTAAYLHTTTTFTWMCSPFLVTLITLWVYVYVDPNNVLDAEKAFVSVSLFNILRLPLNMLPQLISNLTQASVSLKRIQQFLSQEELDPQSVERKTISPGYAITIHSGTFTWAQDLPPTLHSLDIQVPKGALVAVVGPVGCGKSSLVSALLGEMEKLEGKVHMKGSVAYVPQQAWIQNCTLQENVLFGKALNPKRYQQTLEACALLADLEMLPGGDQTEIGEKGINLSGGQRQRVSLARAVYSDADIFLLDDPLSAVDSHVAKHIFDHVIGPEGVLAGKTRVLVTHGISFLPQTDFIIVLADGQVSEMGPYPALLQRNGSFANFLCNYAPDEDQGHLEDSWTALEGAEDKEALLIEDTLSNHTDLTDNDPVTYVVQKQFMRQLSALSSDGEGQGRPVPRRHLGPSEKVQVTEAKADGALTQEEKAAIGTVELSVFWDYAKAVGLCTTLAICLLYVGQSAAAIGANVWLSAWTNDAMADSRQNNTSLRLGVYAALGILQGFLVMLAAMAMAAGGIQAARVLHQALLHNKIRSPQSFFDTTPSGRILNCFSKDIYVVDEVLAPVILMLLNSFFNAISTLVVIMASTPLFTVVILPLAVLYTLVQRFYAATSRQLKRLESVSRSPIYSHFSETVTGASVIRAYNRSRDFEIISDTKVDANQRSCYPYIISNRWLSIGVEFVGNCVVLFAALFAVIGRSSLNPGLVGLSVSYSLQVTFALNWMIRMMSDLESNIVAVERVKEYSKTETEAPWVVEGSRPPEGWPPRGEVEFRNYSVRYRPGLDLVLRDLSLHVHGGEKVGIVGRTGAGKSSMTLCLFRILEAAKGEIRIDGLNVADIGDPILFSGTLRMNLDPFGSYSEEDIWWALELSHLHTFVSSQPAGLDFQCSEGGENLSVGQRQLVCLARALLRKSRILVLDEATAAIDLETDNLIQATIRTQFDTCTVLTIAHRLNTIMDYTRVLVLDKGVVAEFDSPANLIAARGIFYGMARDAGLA

With `CCC1(c2ccccc2)C(=O)NC(=O)NC1=O` [PHENOBARBITAL], the Activity entry in data set [1] and in data set [2] was “inducer [+]” in each case.

(Values after ChEMBL document CHEMBL2073867, “cDNA cloning and inducible expression of human multidrug resistance associated protein 3 (MRP3)” (FEBS Lett, 1998).)
